The source made the active and inactive calls. No cut-off for these calls is given here.
What was measured:
Assay type in all cases: cell-based
[1] = target: T1, Toll-like receptor 8 (Homo sapiens) (UniProt Q9NR97); test: Antagonist activity at human TLR8 expressed in HEK-Blue cells assessed as reduction in CL075-induced NF-kappaB activation at 25 uM incubated for 1 hr followed by CL075-stimulation and measured after 24 hrs by quanti-blue SEAP assay relative to control
T1 sequence (whole entry): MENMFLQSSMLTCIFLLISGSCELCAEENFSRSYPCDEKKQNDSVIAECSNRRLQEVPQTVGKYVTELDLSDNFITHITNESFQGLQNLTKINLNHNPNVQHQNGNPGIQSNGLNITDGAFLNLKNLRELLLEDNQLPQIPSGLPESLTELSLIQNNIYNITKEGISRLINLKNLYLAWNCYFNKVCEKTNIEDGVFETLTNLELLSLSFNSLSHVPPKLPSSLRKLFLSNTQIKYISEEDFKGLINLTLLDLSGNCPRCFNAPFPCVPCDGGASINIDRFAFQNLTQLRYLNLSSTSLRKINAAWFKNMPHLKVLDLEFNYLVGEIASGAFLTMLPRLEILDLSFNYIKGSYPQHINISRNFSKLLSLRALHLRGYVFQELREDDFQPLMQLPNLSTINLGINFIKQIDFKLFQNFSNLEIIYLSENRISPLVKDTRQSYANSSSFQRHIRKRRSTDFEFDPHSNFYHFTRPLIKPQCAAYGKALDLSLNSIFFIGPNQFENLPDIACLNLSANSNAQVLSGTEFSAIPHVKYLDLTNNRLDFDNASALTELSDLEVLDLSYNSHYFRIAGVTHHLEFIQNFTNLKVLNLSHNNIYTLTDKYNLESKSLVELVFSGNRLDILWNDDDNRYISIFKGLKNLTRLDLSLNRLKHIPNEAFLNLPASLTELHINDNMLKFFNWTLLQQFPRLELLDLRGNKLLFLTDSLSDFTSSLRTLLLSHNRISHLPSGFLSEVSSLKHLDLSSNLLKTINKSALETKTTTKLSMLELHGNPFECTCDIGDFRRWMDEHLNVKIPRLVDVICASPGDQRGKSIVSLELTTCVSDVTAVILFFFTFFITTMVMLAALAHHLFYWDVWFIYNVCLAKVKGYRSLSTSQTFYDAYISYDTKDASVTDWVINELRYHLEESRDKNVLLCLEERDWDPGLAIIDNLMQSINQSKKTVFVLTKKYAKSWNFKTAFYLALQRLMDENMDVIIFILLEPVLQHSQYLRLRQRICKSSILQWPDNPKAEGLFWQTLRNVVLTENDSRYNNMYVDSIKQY

[2] = target: Toll-like receptor 2 (Homo sapiens) (UniProt O60603); test: Antagonist activity at TLR2 in human THP1 cells assessed as inhibition of Pam2CSK4/Pam3CSK4-induced IL-8 secretion preincubated for 1 hr followed by Pam2CSK4/Pam3CSK4 stimulation and measured after 24 hrs by ELISA; settings: concentration not given here
[3] = target: T1, Toll-like receptor 8 (Homo sapiens); test: Activation of human TLR8 expressed in HEK-Blue cells assessed as increase in NF-kappaB activation at 5 to 25 uM incubated for 24 hrs by quanti-blue SEAP assay
[4] = Cytotoxicity against human HEK-Blue cells transfected with hTLR8 at 25 to 50 uM after 24 hrs by MTT assay

Toll-like receptor 2 (Homo sapiens), sequence (O60603 whole entry): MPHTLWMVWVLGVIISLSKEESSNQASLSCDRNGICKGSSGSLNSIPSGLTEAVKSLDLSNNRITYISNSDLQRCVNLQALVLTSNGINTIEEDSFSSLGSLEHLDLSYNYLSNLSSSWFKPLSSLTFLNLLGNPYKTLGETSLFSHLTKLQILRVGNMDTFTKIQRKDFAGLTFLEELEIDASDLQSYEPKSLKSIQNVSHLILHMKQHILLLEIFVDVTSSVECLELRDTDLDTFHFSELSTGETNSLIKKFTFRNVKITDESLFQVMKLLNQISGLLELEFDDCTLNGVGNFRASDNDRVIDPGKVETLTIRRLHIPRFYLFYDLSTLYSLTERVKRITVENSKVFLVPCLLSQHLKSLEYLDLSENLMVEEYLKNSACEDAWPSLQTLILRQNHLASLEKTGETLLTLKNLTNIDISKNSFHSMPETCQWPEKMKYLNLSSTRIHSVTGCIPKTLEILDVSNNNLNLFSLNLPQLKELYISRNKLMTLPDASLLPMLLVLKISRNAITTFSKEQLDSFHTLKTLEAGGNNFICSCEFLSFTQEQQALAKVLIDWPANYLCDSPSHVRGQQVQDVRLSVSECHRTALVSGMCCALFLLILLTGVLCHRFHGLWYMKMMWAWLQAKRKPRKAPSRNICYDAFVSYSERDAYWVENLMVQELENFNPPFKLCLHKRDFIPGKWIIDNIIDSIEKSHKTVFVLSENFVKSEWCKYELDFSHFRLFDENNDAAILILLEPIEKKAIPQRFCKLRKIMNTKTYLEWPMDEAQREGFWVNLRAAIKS

Compound	inhibition [1] [%]	inhibition [2] [%]	Activity [3]	Activity [4]
C=CCNc1nc(-c2ccco2)cc(C(F)(F)F)n1	–	–	inactive	Non-Toxic
CC(C)OC(=O)CSc1nc2ccc[nH]c-2n1	–	–	inactive	Non-Toxic
CCn1cc(-c2cc(C(F)(F)F)nc(NCc3ccco3)n2)cn1	–	–	inactive	Non-Toxic
CCCCCCn1c(=O)[nH]c2ccccc21	–	–	inactive	Non-Toxic
C=CCNc1nc(C)nc(N2NC(C)=CC2C)n1 (stereo not given)	–	–	inactive	Non-Toxic

More lines, main results first:

inhibition [1] [%]	inhibition [2] [%]	Activity [3]	Compound	Activity [4]
< 50	40	inactive	Cc1[nH]c2ccccc2c1C(=O)C(=O)NCc1ccncc1	Non-Toxic
–	–	inactive	COc1ccc(NC(=O)c2[nH]nc3ccccc23)cn1	Non-Toxic
–	–	inactive	CCCSc1nc2ccccc2[nH]1	Non-Toxic
–	–	inactive	CCCCC(=O)c1c(C)[nH]c2ccccc12	Non-Toxic
–	–	inactive	Oc1nc2ccccc2n1Cc1ccccc1	Non-Toxic
< 50	–	inactive	CCOC(=O)c1ccc(NC(=O)C(CC)Sc2nc3ccccc3[nH]2)cc1 (stereo not given)	Non-Toxic

Reference: ChEMBL document CHEMBL4304775, “Identification and characterization of a novel chemotype for human TLR8 inhibitors” (Eur J Med Chem, 2019)
